Test results published in patent US9926304B2, “1-(arylmethyl)quinazoline-2,4(1H,3H)-diones as PARP inhibitors and the use thereof” (Impact Therapeutics, Inc., priority 2011, dated 2018).

Tests used:
[1] = tested on: Human breast cancer cell line T47D; assay: Cell based caspase-3 activity assay: potentiation of MMS induced apoptosis; conditions: Homo sapiens, T47D, 24 h, T47D cells, 11.1 μg/ml MMS, 24 hours, intracellular caspase-3 activity; read-out: EC50 (nM), potentiation of the apoptosis inducing activity of MMS
Outline: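 T47D cells were exposed for 24 h to compound plus a minimally apoptotic MMS dose (medium containing 11.1 μg/ml MMS). Lysates were incubated 3 h at 37 °C with (Ac-DEVD)2-R110 caspase-3 substrate (20 μM in added buffer) and read at ex 496/em 520 nm. EC50 came from a sigmoidal fit of RFU versus log concentration.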

[2] = tested on: BRCA-2 deficient CAPAN-1 human pancreatic cancer cells; assay: MTT based cell viability assay: growth inhibition of BRCA-2 deficient CAPAN-1 cells; conditions: 240 h, compound alone, 10 day assay
Source text: Determination of the cell growth inhibiting activity of 1-(3-(4-(pyrimidin-2-yl)piperazine-1-carbonyl)benzyl)quinazoline-2,4(1H,3H)-dione and analogs on BRCA-2 deficient CAPAN-1 pancreatic duck cancer cells using a MTT based cell viability assay
BRCA-deficient cancer cells are sensitive to PARP inhibition. In the presence of PARP inhibitors, BRCA-deficient cancer cells could not grow and eventually will lead to death of cells. BRCA-2 deficient CAPAN-1 human pancreatic cancer cells were used to test the growth inhibiting activity of substituted 1-(arylmethyl)quinazoline-2,4(1H,3H)-diones. Briefly, CAPAN-1 cells are grown and maintained in IMEM medium supplemented with 20% FBS. The assay takes 10 days to finish. On day 1, 6000 CAPAN-1 cells are seeded to each well of a 96-well plate. The cells are incubated at 37° C. in a cell culture incubator overnight. In the next day, serial dilutions of compounds to be tested and reference compound (AZD2281) were prepared with a 1:3 and 1:10 fashion in DMSO. Ten-fold compound solutions were made by mixing 10 μl DMSO serial dilution solutions with 90 μl fresh growth medium. The cell culture medium was removed and 180 μl fresh media with FBS and 20 μl of compound solutions were added to each well. The final concentration of DMSO was 1%. Cells were then returned to the CO2 cell culture incubator and incubated at 37° C. for two days (day 3 and day 4). On day 5, the same procedure as what was done on day 2 was repeated. Cell culture medium was removed and fresh medium containing serial dilutions of compounds or reference compounds were added. Cells were returned to the CO2 cell culture incubator and incubated for two more days. On day 8, same procedure was repeated again and fresh medium containing the testing compounds or reference compounds were added and incubated for an additional 2 days. On day 10, 20 μl of MTT reagent (5 mg/ml) was added to each well of the cell culture plate and incubated for 4 h. The cell culture media was removed and 100 μl DMSO was added to each well. The 96-well cell culture plates were shaked horizontally for 10 min and readed in a Varioskan Flash plate reader (Thermo Fisher Scientific) at 520 and 690 nm. The obtained 520 nm absorbance readings subtracting corresponding 690 nm reading were analyzed using a commercial graphic software (GraphPad Prism 5) and plotted against the Log scale of the compound concentrations.

[3] = tested on: SW620 human colorectal cancer cells; assay: MTT based cell viability assay: potentiation of the growth inhibiting activity of MMS; conditions: Homo sapiens, SW-620, 120 h, read-out: IC50 (nM), potentiation of the growth inhibiting activity of MMS, SW620 cells, 1.7 μg/ml MMS, 5 days (120 hours), MTT

Row | EC50 [1] [nM] | IC50 [2] [nM] | IC50 [3] [nM] | SMILES
1 | 63 | 421 | 99 | Cc1ccc2c(c1)c(=O)[nH]c(=O)n2Cc1cccc(C(=O)N2CCN(c3ncccn3)CC2)c1 [Example 81, 6-Methyl-1-(3-(4-(pyrimidin-2-yl)piperazine-1-carbonyl)benzyl)quinazoline-2,4(1H,3H)-dione]
2 | 21 | 746 | 72 | Cc1ccc2c(c1)c(=O)[nH]c(=O)n2Cc1ccc(F)c(C(=O)N2CCN(c3ncccn3)CC2)c1 [Example 83, 1-(4-Fluoro-3-(4-(pyrimidin-2-yl)piperazine-1-carbonyl)benzyl)-6-methylquinazoline-2,4(1H,3H)-dione]
3 | 7.6 | 291 | 25 | Cc1ccc2c(c1)c(=O)[nH]c(=O)n2Cc1ccc(F)c(C(=O)N2CCN(C(=O)C3CCCC3)CC2)c1 [Example 85, 1-(3-(4-(Cyclopentylcarbonyl)piperazine-1-carbonyl)-4-fluorobenzyl)-6-methylquinazoline-2,4(1H,3H)-dione]
4 | 70 | 312 | 202 | O=C(c1cccc(Cn2c(=O)[nH]c(=O)c3c(Cl)cccc32)c1)N1CCN(c2ncccn2)CC1 [Example 100, 5-Chloro-1-(3-(4-(pyrimidin-2-yl)piperazine-1-carbonyl)benzyl)quinazoline-2,4(1H,3H)-dione]
5 | 20 | 1050 | 117 | O=C(c1cccc(Cn2c(=O)[nH]c(=O)c3c(Cl)cccc32)c1)N1CCN(C(=O)C2CCCC2)CC1 [Example 101, 5-Chloro-1-(3-(4-(cyclopentylcarbonyl)piperazine-1-carbonyl)benzyl)quinazoline-2,4(1H,3H)-dione]
6 | 29 | 665 | 45 | O=C(c1cc(Cn2c(=O)[nH]c(=O)c3c(Cl)cccc32)ccc1F)N1CCN(c2ncccn2)CC1 [Example 103, 5-Chloro-1-(4-fluoro-3-(4-(pyrimidin-2-yl)piperazine-1-carbonyl)benzyl)quinazoline-2,4(1H,3H)-dione]
7 | 2.6 | 452 | 8.3 | O=C(c1cc(Cn2c(=O)[nH]c(=O)c3c(Cl)cccc32)ccc1F)N1CCN(C(=O)C2CCCC2)CC1 [Example 104, 5-Chloro-1-(3-(4-(cyclopentylcarbonyl)piperazine-1-carbonyl)-4-fluorobenzyl)quinazoline-2,4(1H,3H)-dione]
8 | 14 | 97 | 7.9 | O=C(c1cc(Cn2c(=O)[nH]c(=O)c3c(Cl)cccc32)ccc1F)N1CCN(C(=O)C2CCCCC2)CC1 [Example 105, 5-Chloro-1-(3-(4-(cyclohexylcarbonyl)piperazine-1-carbonyl)-4-fluorobenzyl)quinazoline-2,4(1H,3H)-dione]
9 | 9.5 | 161 | 6.3 | O=C(c1cccs1)N1CCN(C(=O)c2cc(Cn3c(=O)[nH]c(=O)c4c(Cl)cccc43)ccc2F)CC1 [Example 107, 5-Chloro-1-(4-fluoro-3-(4-(thiophene-2-carbonyl)piperazine-1-carbonyl)benzyl)quinazoline-2,4(1H,3H)-dione]
10 | 1.7 | 77 | 27 | O=C(c1cccc(Cn2c(=O)[nH]c(=O)c3cc(Cl)ccc32)c1)N1CCN(c2ncccn2)CC1 [Example 111, 6-Chloro-1-(3-(4-(pyrimidin-2-yl)piperazine-1-carbonyl)benzyl)quinazoline-2,4(1H,3H)-dione]
11 | 2.9 | 767 | 14 | O=C(c1cccc(Cn2c(=O)[nH]c(=O)c3cc(Cl)ccc32)c1)N1CCN(C(=O)C2CCCC2)CC1 [Example 112, 6-Chloro-1-(3-(4-(cyclopentylcarbonyl)piperazine-1-carbonyl)benzyl)quinazoline-2,4(1H,3H)-dione]
12 | 17 | 170 | 9.6 | O=C(c1cccc(Cn2c(=O)[nH]c(=O)c3cc(Cl)ccc32)c1)N1CCN(C(=O)C2CCCCC2)CC1 [Example 113, 6-Chloro-1-(3-(4-(cyclohexylcarbonyl)piperazine-1-carbonyl)benzyl)quinazoline-2,4(1H,3H)-dione]
13 | 5.8 | 39 | 5.1 | O=C(c1cc(Cn2c(=O)[nH]c(=O)c3cc(Cl)ccc32)ccc1F)N1CCN(c2ncccn2)CC1 [Example 117, 6-Chloro-1-(4-fluoro-3-(4-(pyrimidin-2-yl)piperazine-1-carbonyl)benzyl)quinazoline-2,4(1H,3H)-dione]
14 | 3.1 | 54 | 0.82 | O=C(c1cc(Cn2c(=O)[nH]c(=O)c3cc(Cl)ccc32)ccc1F)N1CCN(C(=O)C2CCCC2)CC1 [Example 118, 6-Chloro-1-(3-(4-(cyclopentylcarbonyl)piperazine-1-carbonyl)-4-fluorobenzyl)quinazoline-2,4(1H,3H)-dione]
15 | 3 | 56 | 0.72 | O=C(c1cc(Cn2c(=O)[nH]c(=O)c3cc(Cl)ccc32)ccc1F)N1CCN(C(=O)C2CCCCC2)CC1 [Example 119, 6-Chloro-1-(3-(4-(cyclohexylcarbonyl)piperazine-1-carbonyl)-4-fluorobenzyl)quinazoline-2,4(1H,3H)-dione]
16 | 11 | 111 | 15 | O=C(c1ccc(F)c(Cn2c(=O)[nH]c(=O)c3cc(Cl)ccc32)c1)N1CCN(c2ncccn2)CC1 [Example 123, 6-Chloro-1-(6-fluoro-3-(4-(pyrimidin-2-yl)piperazine-1-carbonyl)benzyl)quinazoline-2,4(1H,3H)-dione]
17 | 3.8 | 137 | 9.9 | O=C(c1ccc(F)c(Cn2c(=O)[nH]c(=O)c3cc(Cl)ccc32)c1)N1CCN(C(=O)C2CCCC2)CC1 [Example 124, 6-Chloro-1-(3-(4-(cyclopentylcarbonyl)piperazine-1-carbonyl)-6-fluorobenzyl)quinazoline-2,4(1H,3H)-dione]
18 | 12 | 442 | 37 | O=C(c1cccc(Cn2c(=O)[nH]c(=O)c3c(F)cccc32)c1)N1CCN(C(=O)C2CCCC2)CC1 [Example 128, 1-(3-(4-(Cyclopentylcarbonyl)piperazine-1-carbonyl)benzyl)-5-fluoroquinazoline-2,4(1H,3H)-dione]
19 | 2.1 | 22 | 4.1 | O=C(c1cc(Cn2c(=O)[nH]c(=O)c3c(F)cccc32)ccc1F)N1CCN(C(=O)C2CCCC2)CC1 [Example 133, 1-(3-(4-(Cyclopentylcarbonyl)piperazine-1-carbonyl)-4-fluorobenzyl)-5-fluoroquinazoline-2,4(1H,3H)-dione]
20 | 4.7 | 45 | 5.8 | O=C(c1cc(Cn2c(=O)[nH]c(=O)c3c(F)cccc32)ccc1F)N1CCN(C(=O)C2CCCCC2)CC1 [Example 134, 1-(3-(4-(Cyclohexylcarbonyl)piperazine-1-carbonyl)-4-fluorobenzyl)-5-fluoroquinazoline-2,4(1H,3H)-dione]
21 | 3.2 | 40 | 7.1 | O=C(c1cccs1)N1CCN(C(=O)c2cc(Cn3c(=O)[nH]c(=O)c4c(F)cccc43)ccc2F)CC1 [Example 136, 5-Fluoro-1-(4-fluoro-3-(4-(thiophene-2-carbonyl)piperazine-1-carbonyl)benzyl)quinazoline-2,4(1H,3H)-dione]
22 | 8.9 | 155 | 37 | O=C(c1cccc(Cn2c(=O)[nH]c(=O)c3cc(F)ccc32)c1)N1CCN(c2ccccn2)CC1 [Example 140, 6-Fluoro-1-(3-(4-(pyridin-2-yl)piperazine-1-carbonyl)benzyl)quinazoline-2,4(1H,3H)-dione]
23 | 3.8 | 223 | 22 | O=C(c1cccc(Cn2c(=O)[nH]c(=O)c3cc(F)ccc32)c1)N1CCN(C(=O)C2CCCCC2)CC1 [Example 142, 1-(3-(4-(Cyclohexylcarbonyl)piperazine-1-carbonyl)benzyl)-6-fluoroquinazoline-2,4(1H,3H)-dione]
